# Tests used:
# Type in all cases: cell-based
# [1] = test system: Escherichia coli (DSMZ 46295); assay: Example 3 preservation efficacy: H60 slurry with industrial grade urea solution, E. coli inoculum, TVC; settings: industrial grade urea 5.5%, calcium carbonate 69%, water 25.5% w/w, 30° C.
# Method: (§1) All quoted bacterial counts (Total viable counts (TVC) values), unless otherwise indicated, are given in cfu/ml and determined after at least 2 days following plate-out and incubation at 30° C. and in accordance with the counting method described in “Bestimmung von aerobe mesophilen Keimen”, Schweizerisches Lebensmittelbuch, chapter 56, section 7.01, edition of 1985, revised version of 1988.
# (§2) Unless otherwise stated, per tryptic soy agar plate (TSA, prepared using BD 236950) 0.1 ml of a solution or suspension is plated. Counts from 10000 cfu/ml to 99999 cfu/ml are reported as >1E4 cfu/ml. Counts from 100000 cfu/ml to 999999 cfu/ml are reported as >1E5 cfu/ml. Counts above 1000000 cfu/ml are reported as >1E6 cfu/ml.
# (§3) For the preparation of inoculum with a single bacterial species (for example Escherichia coli (DSMZ 46295) or Pseudomonas putida), bacteria are spread onto Tryptic soy broth agar (BD, 236950) by dilution streaking followed by incubation at 30° C. for at least 24 h until colonies appear. Overnight cultures are generated by inoculation of 3 ml Tryptic soy broth (Fluka 22092) with a single colony followed incubation with agitation at […] at 30° C. for 24 h.
# (§4) 50 g sterile calcium carbonate slurry (H60) with a solid content of 77.3 wt.-%, based on the total weight of the H60 slurry is supplemented with industrial grade 50% (w/w) urea solution (Yara Canda Inc.) or water to different final concentrations. The industrial grade contained natural resident (i.e. bacteria in a non-growing state) bacteria. The bacterial of the industrial urea burden is 5 cfu/3 ml as determined by TVC. The species are identified by characterizing the grown colonies from the TVC by 16 S RNA sequencing, known to the person skilled in the art.
# (§5) The samples are further artificially inoculated with 1 ml non-sterile calcium carbonate slurry (H60), 1 ml non-sterile calcium carbonate slurry (H90), 0.02 ml overnight culture of Escherichia coli (DSMZ 46295) and 0.02 ml overnight culture Pseudomonas putida. The control sample are not inoculated. […]
# [2] = test system: non-sterile calcium carbonate slurry (H90), environmental bacteria; assay: Example 3 preservation efficacy: H60 slurry with industrial grade urea solution, non-sterile H90 inoculum, TVC; settings: industrial grade urea 5.5%, calcium carbonate 69%, water 25.5% w/w, 30° C.
# Method: as §1, §2
# (§6) Non-sterile slurries (H60 or H90) contain contamination with environmental bacteria at a TVC>100000 cfu/ml. The contamination originates spontaneously and a bacterial burden of at least>100000 cfu/ml is confirmed prior use as inoculum by TVC. The following bacterial species are known to occur, as identified by 16S RNA sequencing or MALDI-TOF-MS analysis: Rhizobium radiobacter, Brevundimonas intermedia, Brevundimonas diminiuta, Sphingomonas sp., Pseudomonas stutzeri, Pseudomonas sp., Comomonas aquatic.
# as §4, §5
# [3] = test system: non-sterile calcium carbonate slurry (H90), environmental bacteria; assay: Example 1 preservation efficacy: sterile H90 slurry with dry urea, up to three inoculations with non-sterile H90 slurry, TVC; settings: for TVC cfu/ml 2nd Inoculation / TVC cfu/ml 3rd Inoculation / TVC cfu/ml 1st Inoculation: calcium carbonate 75%, water 25% w/w, H90 slurry; for TVC cfu/ml 1st Inoculation: 3 days at 30° C. after inoculation
# Method: as §1, §2, §6
# 50 g sterile slurry H90 with a solid content of 75 wt.-%, based on the total weight of the H90 slurry is supplemented with different concentrations of dry urea. The samples are then stored for 3 days at 30° C. After the storage, the samples are inoculated with 1 ml non-sterile calcium carbonate slurry (H90), incubated for 3 days at 30° C. and the TVC is determined. Samples are further inoculated with 1 ml non-sterile calcium carbonate slurry (H90). Up to three inoculations are performed.
# [4] = test system: Escherichia coli (DSMZ 46295); assay: Example 2 preservation efficacy: H60 slurry with 61 wt.-% urea solution, E. coli inoculum, TVC
# Method: as §1, §2, §3
# 50 g sterile slurry H60 with a solid content of 76.5 wt.-%, based on the total weight of the H60 slurry is supplemented with different amounts of 61 wt.-% urea solution or water. The samples are then inoculated with 1 ml non-sterile calcium carbonate slurry (H60), 1 ml non-sterile calcium carbonate slurry (H90), 0.02 ml overnight culture of Escherichia coli (DSMZ 46295) and 0.02 ml overnight culture of Pseudomonas putida. The control samples are not inoculated. Samples are incubated at 30° C. and the TVC and pH are determined at various time points (0 day, 1 day, 4, days, 8 days, 9 days and/or 13 days).
# Pseudomonas putida = assay: Example 3 preservation efficacy: H60 slurry with industrial grade urea solution, P. putida inoculum, TVC; settings: industrial grade urea 5.5%, calcium carbonate 69%, water 25.5% w/w, 30° C.
# Method: as §1, §2, §3, §4, §5
# [5] = test system: non-sterile calcium carbonate slurry (H60), environmental bacteria; assay: Example 4 preservation efficacy: H60 slurry with 61% (w/w) urea solution, non-sterile H60 inoculum, TVC; settings: 30° C.
# Method: as §1, §2, §6
# 50 g sterile calcium carbonate slurry (H60) with a solid content of 78.3 wt.-%, based on the total weight of the H60 slurry are supplemented with 61% (w/w) urea solution to different final concentrations. The samples are inoculated with 1 ml non-sterile calcium carbonate slurry (H60). Samples are incubated at 30° C. and TVC and pH are determined at various time points (0 day, 1 day, 4, days, 11 days).
# [6] = Table 2, urea 2.75%, calcium carbonate 73.1%, water 24.15% w/w, inoculum E. coli, 30° C.
# [7] = Table 2, urea 7.6%, calcium carbonate 67.1%, water 25.3% w/w, inoculum E. coli, 30° C.
# [8] = Table 3, urea 0.65%, calcium carbonate 75.7%, water 23.65% w/w, inoculum E. coli, 30° C.
# [9] = Table 3, urea 1.28%, calcium carbonate 74.9%, water 23.82% w/w, inoculum E. coli, 30° C.
# [10] = Table 3, urea 2.75%, calcium carbonate 73.1%, water 24.15% w/w, inoculum E. coli, 30° C.
# [11] = urea 0.40%, calcium carbonate 75.61%, water 23.99% w/w
# [12] = urea 1.10%, calcium carbonate 75.48%, water 23.42% w/w
# [13] = urea 2.80%, calcium carbonate 75.21%, water 21.98% w/w
smiles,measurement,setting,value
NC(N)=O [urea],TVC cfu/ml Day 1,[1],<100 cfu/ml
same,TVC cfu/ml Day 4,[1],<100 cfu/ml
same,TVC cfu/ml Day 8,[1],<100 cfu/ml
same,TVC cfu/ml Day 11,[1],<100 cfu/ml
same,TVC cfu/ml Day 13,[1],<100 cfu/ml
same,TVC cfu/ml Day 1,[2],>1E4 cfu/ml
same,TVC cfu/ml Day 4,[2],300 cfu/ml
same,TVC cfu/ml Day 8,[2],<100 cfu/ml
same,TVC cfu/ml Day 11,[2],<100 cfu/ml
same,TVC cfu/ml Day 13,[2],<100 cfu/ml
same,preservation of calcium carbonate slurries from bacterial growth,[3]; low urea concentrations (table 1: 0.025-0.075%),not able to preserve
same,TVC cfu/ml 2nd Inoculation,[3]; urea 0.025%,>1E6 cfu/ml
same,TVC cfu/ml 3rd Inoculation,[3]; urea 0.025%,>1E6 cfu/ml
same,TVC cfu/ml 1st Inoculation,[3]; urea 0.025%,>1E6 cfu/ml
same,TVC cfu/ml 2nd Inoculation,[3]; urea 0.05%,>1E6 cfu/ml
same,TVC cfu/ml 3rd Inoculation,[3]; urea 0.05%,>1E6 cfu/ml
same,TVC cfu/ml 1st Inoculation,[3]; urea 0.05%,>1E6 cfu/ml
same,TVC cfu/ml 2nd Inoculation,[3]; urea 0.075%,>1E6 cfu/ml
same,TVC cfu/ml 3rd Inoculation,[3]; urea 0.075%,>1E6 cfu/ml
same,TVC cfu/ml 1st Inoculation,[3]; urea 0.075%,>1E6 cfu/ml
same,TVC cfu/ml Day 1,[4]; [6],<100 cfu/ml
same,TVC cfu/ml Day 4,[4]; [6],<100 cfu/ml
same,TVC cfu/ml Day 8,[4]; [6],500 cfu/ml
same,TVC cfu/ml Day 13,[4]; [6],<100 cfu/ml
same,TVC cfu/ml Day 1,[4]; [7],<100 cfu/ml
same,TVC cfu/ml Day 4,[4]; [7],<100 cfu/ml
same,TVC cfu/ml Day 8,[4]; [7],<100 cfu/ml
same,TVC cfu/ml Day 13,[4]; [7],100 cfu/ml
same,TVC cfu/ml Day 1,[4]; [8],>1E5 cfu/ml
same,TVC cfu/ml Day 4,[4]; [8],>1E5 cfu/ml
same,TVC cfu/ml Day 1,[4]; [9],<100 cfu/ml
same,TVC cfu/ml Day 4,[4]; [9],<100 cfu/ml
same,TVC cfu/ml Day 1,[4]; [10],<100 cfu/ml
same,TVC cfu/ml Day 4,[4]; [10],<100 cfu/ml
same,TVC cfu/ml Day 9,[4]; [10],<100 cfu/ml
same,"preservation of calcium carbonate slurries from bacterial growth, duration","[4]; high urea concentrations, summary of tables 2 and 3, all inocula",at least 13 days
same,TVC cfu/ml Day 1,Pseudomonas putida,<100 cfu/ml
same,TVC cfu/ml Day 4,Pseudomonas putida,<100 cfu/ml
same,TVC cfu/ml Day 8,Pseudomonas putida,<100 cfu/ml
same,TVC cfu/ml Day 11,Pseudomonas putida,<100 cfu/ml
same,TVC cfu/ml Day 13,Pseudomonas putida,<100 cfu/ml
same,TVC cfu/ml Day 4,[5]; [11],>1E5 cfu/ml
same,TVC cfu/ml Day 11,[5]; [11],>1E5 cfu/ml
same,TVC cfu/ml Day 1,"[5]; urea 0.40%, calcium carbonate 75.61%, water 23.99% w/w, detection limit 100 cfu/ml",>1E5 cfu/ml
same,TVC cfu/ml Day 1,[5]; [12],>1E5 cfu/ml
same,TVC cfu/ml Day 4,[5]; [12],>1E5 cfu/ml
same,TVC cfu/ml Day 11,[5]; [12],>1E5 cfu/ml
same,TVC cfu/ml Day 1,[5]; [13],>1E4 cfu/ml
same,TVC cfu/ml Day 4,[5]; [13],600 cfu/ml
same,TVC cfu/ml Day 11,[5]; [13],<100 cfu/ml
